Experimental data reported in ChEMBL document CHEMBL1208744, “Petiolins J-M, prenylated acylphloroglucinols from Hypericum pseudopetiolatum var. kiusianum” (Bioorg Med Chem Lett, 2010).
Values after ≈ are worked out from the molar mass of the structure shown.

What was measured:
[1] = test system: Trichophyton mentagrophytes; test: Antimicrobial activity against Trichophyton mentagrophytes; type: functional
[2] = test system: Micrococcus luteus; test: Antimicrobial activity against Micrococcus luteus; type: functional
[3] = test system: KB; test: Cytotoxicity against human KB cells; type: functional; conditions: read-out: MIC
[4] = test system: Cryptococcus neoformans; test: Antimicrobial activity against Cryptococcus neoformans; type: functional
[5] = test system: L1210; test: Cytotoxicity against mouse L1210 cells; type: functional, cell-based

| MIC [1] | MIC [2] | MIC [4] | Compound | cytotoxic concentration [3] | IC50 [5] |
| --- | --- | --- | --- | --- | --- |
| 16 µg/mL (≈ 44.1 µM) | 8 µg/mL (≈ 22.1 µM) | 16 µg/mL (≈ 44.1 µM) | CC(C)=CCC[C@]1(C)Oc2c(c(O)c(C)c(O)c2C(=O)C(C)C)C[C@H]1O [PETIOLIN J] | > 10 µg/mL | > 10 µg/mL |
|  |  |  | Cc1c(O)c(C(=O)C(C)C)c2c3c1OC(C)(C)[C@@H]1CC[C@@](C)(C[C@@H]31)O2 [PETIOLIN K] | > 10 µg/mL | > 10 µg/mL |
|  |  |  | CC(C)=CCC[C@](C)(O)[C@H]1C[C@@]2(CC=C(C)C)C(=O)C(C)(C)C(=O)C(C(=O)C(C)C)=C2O1 [PETIOLIN M] | > 10 µg/mL | > 10 µg/mL |
|  |  |  | CCC(C)C(=O)C1=C2O[C@@H]([C@@](C)(O)CCC=C(C)C)C[C@]2(CC=C(C)C)C(=O)C(C)(C)C1=O (stereo partly specified) [PETIOLIN L] | > 10 µg/mL | > 10 µg/mL |
